Measured values taken from patent publication US20240116845A1, “INDENE COMPOUNDS, PHARMACEUTICAL COMPOSITIONS THEREOF, AND THEIR THERAPEUTIC APPLICATIONS” (NucMito Pharmaceuticals Co., Ltd., priority 2021, published 2024).

How the values were obtained:
Format in all cases: cell-based
[1] = test system: A549 (lung adenocarcinoma); test: Antiproliferative activity, CCK-8 cell viability; conditions: Homo sapiens, 72 h, read-out: Inhibition of Cancerous Cells, A549; for inhibition at 3.3 µM: compound concentration of 3.3 μM; for inhibition at 10 µM: compound concentration of 10 μM; for inhibition at 30 µM: compound concentration of 30 μM
[2] = test system: MDA-MB-231 (breast cancer); test: Antiproliferative activity, CCK-8 cell viability; conditions: Homo sapiens, 72 h, read-out: Inhibition of Cancerous Cells, MDA-MB-231; for inhibition at 3.3 µM: compound concentration of 3.3 μM; for inhibition at 10 µM: compound concentration of 10 μM; for inhibition at 30 µM: compound concentration of 30 μM
In short: (§1)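 Viability relative to DMSO controls came from CCK-8 absorbance at 450 nm after 72 h exposure at 37°C. Compound concentrations were 3.3, 10 or 30 μM, in DMEM plus 10% FBS. Results are categorised by inhibition level: at least 50%, 30 to under 50%, or under 30%.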

[3] = test system: B16F10 (malignant melanoma); test: Antiproliferative activity, CCK-8 cell viability; conditions: Mus musculus, B16-F10, 72 h, read-out: Inhibition of Cancerous Cells, B16F10; for inhibition at 3.3 µM: compound concentration of 3.3 μM; for inhibition at 10 µM: compound concentration of 10 μM; for inhibition at 30 µM: compound concentration of 30 μM
In short: as §1

[4] = test system: A431 (epidermoid carcinoma); test: Antiproliferative activity, CCK-8 cell viability; conditions: Homo sapiens, A-431, 72 h, read-out: Inhibition of Cancerous Cells, A431; for inhibition at 3.3 µM: compound concentration of 3.3 μM; for inhibition at 10 µM: compound concentration of 10 μM; for inhibition at 30 µM: compound concentration of 30 μM
In short: as §1

[5] = test system: HeLa (cervical cancer); test: Antiproliferative activity, CCK-8 cell viability; conditions: Homo sapiens, 72 h, read-out: Inhibition of Cancerous Cells, HELA; for inhibition at 3.3 µM: compound concentration of 3.3 μM; for inhibition at 10 µM: compound concentration of 10 μM; for inhibition at 30 µM: compound concentration of 30 μM
[6] = test system: HepG2 (liver cancer); test: Antiproliferative activity, CCK-8 cell viability; conditions: Homo sapiens, 72 h, read-out: Inhibition of Cancerous Cells, HepG2; for inhibition at 3.3 µM: compound concentration of 3.3 μM; for inhibition at 10 µM: compound concentration of 10 μM; for inhibition at 30 µM: compound concentration of 30 μM
In short: as §1

[7] = test system: SW480 (colon cancer); test: Antiproliferative activity, CCK-8 cell viability; conditions: Homo sapiens, 72 h, read-out: Inhibition of Cancerous Cells, SW480; for inhibition at 3.3 µM: compound concentration of 3.3 μM; for inhibition at 10 µM: compound concentration of 10 μM; for inhibition at 30 µM: compound concentration of 30 μM
In short: as §1

[8] = test system: alpha-smooth muscle actin (α-SMA); test: Inhibition of TGF-β induced expression of alpha-smooth muscle actin in CFSC cells (western blot); conditions: compound at 10 μM, TGF-β (10 ng/mL), 24 hours
In short: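 Read-out is percent decrease in α-SMA western-blot band intensity, β-actin also probed, relative to TGF-β-only cells. CFSC cells were co-treated for 24 h at 37 °C with 10 ng/mL TGF-β and 10 μM compound in serum-free DMEM.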

**Q.** What does the source list for `CC1=C(CC(=O)O)c2cc(F)ccc2/C1=C\c1ccc(CN(C)c2ccccc2)cc1` [Compound A9, 2-[(1Z)-5-Fluoro-2-methyl-1-[(4-{[methyl(phenyl)amino]methyl}phenyl)-methylidene]-1H-inden-3-yl]acetic acid]?
**A.** inhibition at 3.3 µM [1]: ≥ 50%; inhibition at 10 µM [1]: ≥ 50%; inhibition at 30 µM [1]: ≥ 50%; inhibition at 3.3 µM [2]: 30 to 50%; inhibition at 10 µM [2]: ≥ 50%; inhibition at 30 µM [2]: ≥ 50%; inhibition at 3.3 µM [3]: ≥ 50%; inhibition at 10 µM [3]: ≥ 50%; inhibition at 30 µM [3]: ≥ 50%; inhibition at 3.3 µM [4]: < 30%; inhibition at 10 µM [4]: ≥ 50%; inhibition at 30 µM [4]: ≥ 50%; inhibition at 3.3 µM [5]: < 30%; inhibition at 10 µM [5]: 30 to 50%; inhibition at 30 µM [5]: ≥ 50%; inhibition at 3.3 µM [6]: < 30%; inhibition at 10 µM [6]: < 30%; inhibition at 30 µM [6]: ≥ 50%; inhibition at 3.3 µM [7]: ≥ 50%; inhibition at 10 µM [7]: ≥ 50%; inhibition at 30 µM [7]: ≥ 50%; inhibition at 10 µM [8]: ≥ 80%

**Q.** With `CC1=C(CC(=O)O)c2cc(F)ccc2/C1=C\c1ccc(CN(Cc2ccccc2)c2ccccc2)cc1` [Compound A10, 2-[(1Z)-1-[(4-{[Benzyl(phenyl)amino]methyl}phenyl)methylidene]-5-fluoro-2-methyl-1H-inden-3-yl]acetic acid] as the compound, how does the inhibition at 3.3 µM [1] read?
**A.** Its inhibition at 3.3 µM is 30 to 50%.

**Q.** And the inhibition at 10 µM [1]?
**A.** Its inhibition at 10 µM is at least 50%.

**Q.** And the inhibition at 30 µM [1]?
**A.** Its inhibition at 30 µM is at least 50%.

**Q.** And the inhibition at 3.3 µM [2]?
**A.** The inhibition at 3.3 µM was at least 50%.

**Q.** And the inhibition at 10 µM [2]?
**A.** The inhibition at 10 µM was at least 50%.

**Q.** And the inhibition at 30 µM [2]?
**A.** The inhibition at 30 µM was at least 50%.

**Q.** What about the inhibition at 3.3 µM [3] of the same compound?
**A.** The inhibition at 3.3 µM was under 30%.

**Q.** What about the inhibition at 10 µM [3] of the same compound?
**A.** The inhibition at 10 µM was at least 50%.

**Q.** And the inhibition at 30 µM [3]?
**A.** Its inhibition at 30 µM is at least 50%.

**Q.** What about the inhibition at 3.3 µM [4] of the same compound?
**A.** Its inhibition at 3.3 µM is at least 50%.

**Q.** What about the inhibition at 10 µM [4] of the same compound?
**A.** Its inhibition at 10 µM is at least 50%.

**Q.** What about the inhibition at 30 µM [4] of the same compound?
**A.** The inhibition at 30 µM was at least 50%.

**Q.** And the inhibition at 3.3 µM [5]?
**A.** Its inhibition at 3.3 µM is at least 50%.

**Q.** What about the inhibition at 10 µM [5] of the same compound?
**A.** The inhibition at 10 µM was at least 50%.

**Q.** What about the inhibition at 30 µM [5] of the same compound?
**A.** The inhibition at 30 µM was at least 50%.

**Q.** And the inhibition at 3.3 µM [6]?
**A.** Its inhibition at 3.3 µM is at least 50%.

**Q.** What about the inhibition at 10 µM [6] of the same compound?
**A.** Its inhibition at 10 µM is at least 50%.

**Q.** What about the inhibition at 30 µM [6] of the same compound?
**A.** The inhibition at 30 µM was at least 50%.

**Q.** And the inhibition at 3.3 µM [7]?
**A.** Its inhibition at 3.3 µM is at least 50%.

**Q.** What about the inhibition at 10 µM [7] of the same compound?
**A.** The inhibition at 10 µM was at least 50%.

**Q.** What about the inhibition at 30 µM [7] of the same compound?
**A.** The inhibition at 30 µM was at least 50%.

**Q.** What about the inhibition at 10 µM [8] of the same compound?
**A.** The inhibition at 10 µM was at least 80%.

**Q.** What does the source list for `COc1cccc2c1C(CC(=O)O)=C(C)/C2=C/c1ccc(COc2ccccc2)cc1` [Compound A11]?
**A.** inhibition at 3.3 µM [1]: 30 to 50%; inhibition at 10 µM [1]: 30 to 50%; inhibition at 30 µM [1]: 30 to 50%; inhibition at 3.3 µM [2]: < 30%; inhibition at 10 µM [2]: 30 to 50%; inhibition at 30 µM [2]: ≥ 50%; inhibition at 3.3 µM [3]: ≥ 50%; inhibition at 10 µM [3]: ≥ 50%; inhibition at 30 µM [3]: ≥ 50%; inhibition at 3.3 µM [4]: ≥ 50%; inhibition at 10 µM [4]: ≥ 50%; inhibition at 30 µM [4]: ≥ 50%; inhibition at 3.3 µM [5]: < 30%; inhibition at 10 µM [5]: < 30%; inhibition at 30 µM [5]: < 30%; inhibition at 3.3 µM [6]: 30 to 50%; inhibition at 10 µM [6]: ≥ 50%; inhibition at 30 µM [6]: ≥ 50%; inhibition at 3.3 µM [7]: ≥ 50%; inhibition at 10 µM [7]: ≥ 50%; inhibition at 30 µM [7]: ≥ 50%; inhibition at 10 µM [8]: < 30%

**Q.** What does the source list for `COc1ccc2c(c1)/C(=C\c1ccc(COc3ccccc3)cc1)C(C)=C2CC(=O)O` [Compound A12, (Z)-2-(6-Methoxy-2-methyl-1-(4-(phenoxymethyl)benzylidene)-1H-inden-3-yl)acetic acid]?
**A.** inhibition at 3.3 µM [1]: 30 to 50%; inhibition at 10 µM [1]: ≥ 50%; inhibition at 30 µM [1]: ≥ 50%; inhibition at 3.3 µM [2]: < 30%; inhibition at 10 µM [2]: 30 to 50%; inhibition at 30 µM [2]: ≥ 50%; inhibition at 3.3 µM [3]: ≥ 50%; inhibition at 10 µM [3]: ≥ 50%; inhibition at 30 µM [3]: ≥ 50%; inhibition at 3.3 µM [4]: < 30%; inhibition at 10 µM [4]: < 30%; inhibition at 30 µM [4]: ≥ 50%; inhibition at 3.3 µM [5]: 30 to 50%; inhibition at 10 µM [5]: ≥ 50%; inhibition at 30 µM [5]: ≥ 50%; inhibition at 3.3 µM [6]: 30 to 50%; inhibition at 10 µM [6]: 30 to 50%; inhibition at 30 µM [6]: ≥ 50%; inhibition at 3.3 µM [7]: ≥ 50%; inhibition at 10 µM [7]: ≥ 50%; inhibition at 30 µM [7]: ≥ 50%; inhibition at 10 µM [8]: ≥ 80%
